Data published in patent US20120270900A1, “NOVEL METHOD OF TREATMENT” (Topo Target A/S, priority 2009, published 2012).

Tests used:
[1] = test system: myeloma; settings: unless nicotinic acid is given 24 hours after the NAMPRTi; Beauparlant et al.; cited from earlier work
[2] = test system: ovarian cancer cell line A2780; test: CellTiterGlo luminescent cell viability assay; type: cell-based; settings: 3 days treatment, 1 mM nicotinic acid
Procedure: FIG. 7 illustrates cell viability in the ovarian cancer cell line A2780 measured by CellTiterGlo® after 3 days of CHS-828 treatment with and without 1 mM nicotinic acid added to the medium.
(§1) CellTiterGlo® luminescent cell viability assay: Cells were plated in opaque 96-well plates (5,000 cells/well) 24 hours before use and then incubated with drug for 72 hours at the indicated concentrations with or without nicotinic acid (Invitrogen) added to the media. The CellTiterGlo® assay (Promega) was performed according to the manufacturer's instructions and bioluminescence was measured. Analysis and determination of IC50 values were performed by Prizm.

[3] = test system: panel of cell lines of different origin; test: Clonogenic assay, continuous APO866 treatment, panel of cell lines; type: cell-based
Procedure: (§2) Clonogenic assay: Cells were incubated with APO866 at different concentrations with or without 100 μM nicotinic acid and seeded out on semi-solid agar matrix with sheep red blood cells and growth medium. Following a 3-week incubation period, the colonies were counted and % survival relative to control (untreated) cells was calculated. IC50 values were calculated on basis of survival at different concentrations of APO866.
Supplement of nicotinic acid to the growth medium can protect against the cytotoxic effects of inhibitors of nicotinamide phosphoribosyltransferase (NAMPRT), including APO866, by synthesizing nicotine adenine dinucleotide (NAD) by an alternative pathway. A cancer cell line, HEPG2, has been shown not to be able to utilize nicotinic acid for NAD synthesis (Cancer Res. 2003 Nov. 1; 63(21):7436-42). We investigated the protective effect of nicotinic acid against APO866 induced cell death in a panel of cell lines of different origin. […] We used continuous treatment with APO866 in a clonogenic assay. Two cell lines, A2780 and NYH were not protected against APO866 when incubated in a medium containing 100 μM nicotinic acid (Table 1). ML-2, HCT-116 and A431 cells display an increase of IC50 values of more than 40-90 fold in nicotinic acid containing medium compared to standard medium. […]

[4] = Survival of mice under high dose APO866 with or without oral nicotinic acid; type: in vivo
Procedure: FIG. 2 illustrates the cumulative survival of mice in response to high dose APO866 treatment. Treatment is 60 mg APO866 twice/day for 4 days. NA=nicotinic acid.

[5] = APO866 40 mg/kg i.p. x2/day for 4 days, nicotinic acid 20 mg/kg x1/day p.o. for five days; last treatment day
[6] = test system: colon cancer cell line HCT116; test: CellTiterGlo luminescent cell viability assay; type: cell-based; settings: 3 days treatment, varying concentrations of nicotinic acid
Procedure: FIG. 8 illustrates cell viability in the colon cancer cell line HCT116 measured by CellTiterGlo® after 3 days of compound 1050 treatment with and without varying concentrations of nicotinic acid added to the medium.
as §1

[7] = test system: small cell lung cancer cell line NYH; test: CellTiterGlo luminescent cell viability assay; type: cell-based; settings: 3 days treatment, 1 mM nicotinic acid
Procedure: FIG. 9 illustrates cell viability in the small cell lung cancer cell line NYH measured by CellTiterGlo® after 3 days of compound 1050 treatment with and without 1 mM nicotinic acid added to the medium.
as §1

[8] = test system: A2780; test: Clonogenic assay, APO866 with or without 100 μM nicotinic acid; type: cell-based
Procedure: as §2
(§3) Supplement of nicotinic acid to the growth medium can protect against the cytotoxic effects of inhibitors of nicotinamide phosphoribosyltransferase (NAMPRT), including APO866, by synthesizing nicotine adenine dinucleotide (NAD) by an alternative pathway. A cancer cell line, HEPG2, has been shown not to be able to utilize nicotinic acid for NAD synthesis (Cancer Res. 2003 Nov. 1; 63(21):7436-42). We investigated the protective effect of nicotinic acid against APO866 induced cell death in a panel of cell lines of different origin. […] We used continuous treatment with APO866 in a clonogenic assay. Two cell lines, A2780 and NYH were not protected against APO866 when incubated in a medium containing 100 μM nicotinic acid (Table 1). ML-2, HCT-116 and A431 cells display an increase of IC50 values of more than 40-90 fold in nicotinic acid containing medium compared to standard medium. Addition of 100 μM nicotinic acid to the medium had in itself no effect on the survival of the cells (data not shown)

[9] = test system: A431; test: as above; type: cell-based
Procedure: as §2, §3

[10] = test system: HCT-116; test: as above; type: cell-based
Procedure: as §2, §3

[11] = test system: ML-2; test: as above; type: cell-based
Procedure: as §2, §3

[12] = test system: NYH; test: as above; type: cell-based
Procedure: as §2, §3

[13] = test system: PC-3 cells; test: LD50 of APO866 in PC-3 cells with and without nicotinic acid; type: cell-based
[14] = Maximally tolerated dose of APO866 in mice; settings: mouse, in vivo, intraperitoneal; twice a day; Balb/c nude mice; data not shown
[15] = test system: A2780 xenografts; test: Subcutaneous A2780 xenograft study
Procedure: (§4) FIG. 4 illustrates the cumulative survival of mice with subcutaneous A2780 xenografts: Time used for each individual mouse's tumour to reach a size of 800 mm3. The mice were treated i.p. with doses of 15 or 50 mg/kg APO866×2/day in two weekly 4-day cycles combined with vehicle p.o. or 50 mg/kg nicotinic acid (NA). Legend on the figure: The p-values of log-rank analysis comparing the individual groups are shown on the figure.
(§5) Mouse studies: In toxicity and xenograft studies NMRI mice and nude mice, respectively, were treated once daily p.o. with 0.5% HPMC in water or nicotinic acid in the same vehicle combined with two daily injections of APO866 in PBS/saline with 3% HPβCD. The mice were treated in two weekly four-day cycles.
(§6) In xenograft studies, 10^7 cancer cells were injected s.c. in a mixture of PBS/matrigel in nude athymic mice.
(§7) We investigated the in vivo rescue effects of nicotinic acid on nude mice carrying xenograft tumours of A2780 and ML-2 cells. APO866 was given twice daily in weekly four-day cycles for two weeks starting when tumours had reached a size of 100 mm^3.

[16] = test system: ML-2 xenografts; test: Subcutaneous ML-2 xenograft study
Procedure: as §4, with “FIG. 5” for “FIG. 4”, “subcutaneous ML-2” for “subcutaneous A2780”
as §5, §6, §7

[17] = test system: primary lymphocytes; settings: cited from earlier work
[18] = test system: primary intestinal cells; settings: cited from earlier work
[19] = test system: leukemic cells; settings: WO 1999/053920; cited from earlier work
[20] = biological target: T1, NAPRT (Homo sapiens, UniProt Q6XQN6); settings: cited from earlier work
T1 sequence (Q6XQN6 1-538): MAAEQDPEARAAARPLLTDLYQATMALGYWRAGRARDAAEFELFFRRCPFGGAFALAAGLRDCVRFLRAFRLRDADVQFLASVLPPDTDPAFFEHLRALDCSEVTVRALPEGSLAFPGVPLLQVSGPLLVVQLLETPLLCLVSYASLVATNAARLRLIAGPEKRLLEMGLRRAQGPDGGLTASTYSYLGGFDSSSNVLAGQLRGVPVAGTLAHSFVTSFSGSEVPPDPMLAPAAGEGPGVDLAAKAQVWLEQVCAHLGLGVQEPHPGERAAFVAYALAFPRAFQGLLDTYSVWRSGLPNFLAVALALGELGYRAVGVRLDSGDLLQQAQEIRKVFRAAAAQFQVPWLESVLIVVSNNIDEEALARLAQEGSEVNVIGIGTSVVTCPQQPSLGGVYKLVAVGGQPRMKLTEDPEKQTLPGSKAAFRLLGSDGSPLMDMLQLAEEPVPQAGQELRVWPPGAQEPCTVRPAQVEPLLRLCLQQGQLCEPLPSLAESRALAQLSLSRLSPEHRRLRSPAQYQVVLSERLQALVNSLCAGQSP

[21] = increase of IC50 to APO866 with 100 μM nicotinic acid in medium
[22] = 60 mg/kg APO866 twice daily on four consecutive days, vehicle p.o. (no nicotinic acid)

## COCCOCCOCCOCCOC(=O)OC[n+]1ccc(N/C(=N/C#N)NCCCCCCOc2ccc(Cl)cc2)cc1.[Cl-] [GMX1777]
[1]
  effect of nicotinic acid on antitumour effect: abrogates the antitumour effect

## N#CN=C(NCCCCCCOc1ccc(Cl)cc1)Nc1ccncc1 [CHS828]
[2]
  rescue by nicotinic acid from cytotoxicity: minimally rescued

## O=C(O)c1cccnc1 [nicotinic acid]
[3]; 100 μM nicotinic acid added to the medium, data not shown
  effect of nicotinic acid in itself on the survival of the cells: no effect
[4]; nicotinic acid administered on the same days as APO866
  protection against APO866-induced death: protects against death even at four times the normal MTD
[5]
  platelet count upon APO866 treatment, nicotinic acid group compared to control: significantly improved

## N#C/N=C(\NCCCCCCC(=O)N(Cc1ccccc1)OC1CCCCC1)Nc1ccncc1 [Compound 1050]
[6]
  rescue by nicotinic acid from treatment: can rescue
[7]
  rescue by nicotinic acid from treatment: not similarly protected

## O=C(/C=C/c1cccnc1)NCCCCC1CCN(C(=O)c2ccccc2)CC1 [APO866]
[8]; 100 μM nicotinic acid
  protection against APO866 in medium containing nicotinic acid: not protected
[8]; [21]
  NA rescue effect: − (No rescue effect defined as <2-fold increase in IC50)
[9]; 100 μM nicotinic acid
  increase of IC50 values in nicotinic acid containing medium compared to standard medium: 40-90 fold
[9]; [21]
  NA rescue effect: + (Rescue effect defined as >39-fold increase of IC50 to APO866 treatment)
[10]; 100 μM nicotinic acid
  increase of IC50 values in nicotinic acid containing medium compared to standard medium: 40-90 fold
[10]; [21]
  NA rescue effect: + (Rescue effect defined as >39-fold increase of IC50 to APO866 treatment)
[11]; 100 μM nicotinic acid
  increase of IC50 values in nicotinic acid containing medium compared to standard medium: 40-90 fold
[11]; [21]
  NA rescue effect: + (Rescue effect defined as >39-fold increase of IC50 to APO866 treatment)
[12]; 100 μM nicotinic acid
  protection against APO866 in medium containing nicotinic acid: not protected
[12]; [21]
  NA rescue effect: − (No rescue effect defined as <2-fold increase in IC50)
[3]; range over the cell lines of the panel, continuous treatment
  IC50: 1 to 13 nM
[13]; with nicotinic acid (100 μM) present
  LD50: 5.5 ± 1.4 nM
[13]; without nicotinic acid
  LD50: 4.8 ± 3.0 nM
[14]
  MTD: 15 mg/kg
[4]; 60 mg/kg APO866 twice daily on four consecutive days combined with 50 mg/kg/day nicotinic acid p.o., until day 26
  survival of mice: all the mice of the group treated with nicotinic acid survived
[4]; [22]
  death of mice: the majority of the control mice died on day 3 and 4
  mice that survive the initial toxicity and recover: 1 of 7
[15]; 15 mg/kg APO866 i.p. twice daily, weekly four-day cycles for two weeks
  increase of lifespan (% ILS, until tumour size of 800 mm3) compared to the control group: 50%
[15]; 15 mg/kg APO866 with 50 mg/kg nicotinic acid
  anti-proliferative effect with nicotinic acid co-treatment: negates the anti-proliferative effect
[15]; 50 mg/kg APO866 i.p. and 50 mg/kg nicotinic acid p.o.
  increase in % ILS: 180%
[15]; during the study, data not shown
  body weight between the groups: did not vary significantly
[16]; 15 mg/kg APO866 and nicotinic acid, p=0.14
  survival compared with controls: not significantly different from controls
[16]; 50 mg/kg APO866 and nicotinic acid, p=0.002
  tumour growth compared with untreated controls: reduced tumour growth
[16]; 50 mg/kg APO866 combined with nicotinic acid, p=0.97
  effect on tumour size compared with 15 mg/kg APO866 and nicotinic acid: does not improve the effect on tumour size in a significant way
[16]; APO866 only
  effect on tumours: complete elimination of the tumours before day 10
[16]; data not shown
  body weight change between the groups: No overall differences in body weight change
[16]; same APO866 dose with nicotinic acid
  anti-proliferative effect with nicotinic acid co-administered: partially negated
[17]
  effect of vitamin PP compounds on cytotoxic effect: neutralise the cytotoxic effect
[18]
  effect of vitamin PP compounds on cytotoxic effect: neutralise the cytotoxic effect
[19]
  effect of vitamin PP compounds on cytotoxicity: neutralise the cytotoxicity
[20]
  inhibition of the enzyme NAPRT: not inhibited
